Assay results from paper PMC11249646, “Small-Molecule Disruptors of the Interaction between Calcium- and Integrin-Binding Protein 1 and Integrin αIIbβ3 as Novel Antiplatelet Agents” (ACS Pharmacology & Translational Science, 2024).
Where two headings read alike, the source gives them in different places.

Experiments:
[1] = target: T1, CIB1 and αIIb interaction (CIB1-GST : F-αIIb peptide) (Homo sapiens, UniProt Q99828); experiment: FP assay, 1536-well qHTS format (primary and confirmatory screen); format: binding; settings: for Curve Class (confirmatory screen) / CONFIRMATORY SCREEN Curve Class: qHTS curve class
T1 construct: made in house; host or cells: BL-21 plus RIL cells (E. coli)
T1 sequence (Q99828 1-191): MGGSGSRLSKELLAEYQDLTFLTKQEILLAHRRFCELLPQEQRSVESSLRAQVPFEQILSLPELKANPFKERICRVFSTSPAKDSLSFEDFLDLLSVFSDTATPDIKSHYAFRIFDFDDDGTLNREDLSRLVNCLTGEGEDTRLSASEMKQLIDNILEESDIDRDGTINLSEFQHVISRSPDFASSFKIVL

[2] = target: T2, GST-CIB1 : F-scrambled peptide (Homo sapiens, UniProt Q99828); experiment: FP scrambled-peptide counter screen, 1536-well format; format: binding; settings: for Curve Class (counterscreen) / COUNTERSCREEN Curve Class: qHTS curve class; for IC50: read-out: IC50 [μM] (counterscreen)
T2 construct: made in house; host or cells: BL-21 plus RIL cells (E. coli)
T2 sequence (Q99828 1-191): T1 sequence (Q99828 1-191)

[3] = confirmatory screen, negative sign = inhibitory curve
[4] = confirmatory screen, read-out: IC50 [μM] (confirmatory screen)
[5] = qHTS primary screen hits, Table S2, negative = inhibition
[6] = qHTS primary screen hits, Table S2, negative sign = inhibitory curve
[7] = qHTS primary screen hits, Table S2, read-out: IC50
[8] = counterscreen, negative sign = inhibitory curve
[9] = qHTS primary screen hits, Table S2, negative sign = inhibitory curve, several classes where COUNT > 1
[10] = qHTS FP screen hits, Table S2, negative = inhibition
[11] = qHTS FP screen hits, Table S2, read-out: IC50
[12] = Table S3, confirmatory screen, a negative sign marks inhibitory curves
[13] = Table S3, confirmatory screen, negative = inhibition
[14] = Table S3, counterscreen, YES/NO call
[15] = Table S3, counterscreen, a negative sign marks inhibitory curves
[16] = Table S3, counterscreen, negative = inhibition
[17] = Table S3, confirmatory screen, YES/NO call
[18] = Table S3, confirmatory screen, read-out: IC50 [μM] (confirmatory screen)

| Structure (SMILES) | Efficacy (%) (confirmatory screen) ([1]; confirmatory screen) | Confirm? (confirmatory screen) ([1]; confirmatory screen, YES/NO) | Curve Class (confirmatory screen) [1, 3] | IC50 [1, 4] [µM] | Efficacy (%) [1, 5] [%] | IC50 [1, 7] [µM] | Efficacy (%) (counterscreen) ([2]; counterscreen) | Curve Class (counterscreen) [2, 8] | Curve Class [1, 9] | CONFIRMATORY SCREEN Efficacy (%) ([1]; confirmatory screen) | CONFIRMATORY SCREEN Curve Class ([1]; confirmatory screen) | COUNTERSCREEN Efficacy (%) ([2]; counterscreen) | COUNTERSCREEN Curve Class ([2]; counterscreen) | Curve Class (confirmatory screen) [1, 12] | Efficacy (%) (confirmatory screen) [1, 13] | Efficacy (%) (counterscreen) [2, 16] | IC50 ([2]; Table S3, counterscreen) [µM] | other results |
| --- | --- | --- | --- | --- | --- | --- | --- | --- | --- | --- | --- | --- | --- | --- | --- | --- | --- | --- |
| NC(=O)c1ccnc2c(O)cccc12.O=C(O)C(F)(F)F [NCGC00183783-01] | -22 | YES | -2.4 | 50.1 | -40 | 20 | -17 | 4 | – | – | – | – | – | – | – | – | – | Curve Class [1, 6]: -1.2; Confirm? (counterscreen) ([2]; counterscreen, YES/NO): YES |
| O=C(O)C(F)(F)F.Oc1cccc2c(-c3nnn[nH]3)ccnc12 [NCGC00183786-01] | -29 | YES | -1.4 | 25.1 | -27 | 3.5 | -23 | 4 | -1.2 | – | – | – | – | – | – | – | – | Confirm? (counterscreen) ([2]; counterscreen, YES/NO): YES |
| CN1CCN(c2ccc(-c3cc(O)c4ncccc4c3)cc2)CC1.O=C(O)C(F)(F)F [NCGC00183803-01] | – | – | – | – | – | – | – | – | – | -13 | 4 | -12 | 4 | – | – | – | – | Efficacy (%) [1, 10]: -51%; IC50 [1, 11]: 39.8 µM |
| O=C(O)C(F)(F)F.O=C(c1ccc(-c2cc(O)c3ncccc3c2)cc1)N1CCNCC1 [NCGC00183806-01] | – | – | – | – | -40 | 39.8 | – | – | – | – | – | – | – | 4 | -11 | -59 | 35.5 | Curve Class [1, 6]: -2.2; Confirm? (counterscreen) [2, 14]: YES; Curve Class (counterscreen) [2, 15]: -1.2 |
| CN(C)CCCNC(=O)c1ccc(-c2cc(O)c3ncccc3c2)cc1 [NCGC00183808-06] | – | – | – | – | – | – | – | – | – | – | – | – | – | 4 | 0 | -38 | 70.8 | Confirm? (counterscreen) [2, 14]: YES; Curve Class (counterscreen) [2, 15]: -2.4 |
| CN1CCC(N(Cc2cccs2)c2ccccc2)CC1 [NCGC00183847-01] | – | – | – | – | -43 | 39.8 | – | – | -2.4 | 0 | 4 | -12 | 4 | – | – | – | – | – |
| Cc1ccc2nc3sc(C(=O)NCc4ccco4)cc3cc2c1.O=C(O)C(F)(F)F [NCGC00183968-01] | -34 | YES | -1.2 | 15.8 | -24 | 7.1 | -27 | 4 | -1.4 | – | – | – | – | – | – | – | – | Confirm? (counterscreen) ([2]; counterscreen, YES/NO): YES |
| CC(=O)Nc1sc2c(c1-c1nc3ccccc3o1)CCN(C(C)C)C2.O=C(O)C(F)(F)F [NCGC00184832-01] | – | – | – | – | -78 | 50.1 | – | – | -2.2 | – | – | – | – | -1.2 | -47 | -55 | 50.1 | Confirm? (confirmatory screen) [1, 17]: YES; IC50 [1, 18]: 39.8 µM; Curve Class (counterscreen) [2, 15]: -2.2 |
| Oc1ccc(-c2nnn[nH]2)c2cccnc12 [NCGC00184885-01] | -40 | YES | -3 | 79.4 | -31 | 14.1 | -19 | -1.4 | -1.2 | – | – | – | – | – | – | – | – | IC50 ([2]; counterscreen): 35.5 µM |
| NC(=O)c1ccc(O)c2ncccc12 [NCGC00184888-01] | – | – | – | – | -24 | 14.1 | – | – | -1.4 | -19 | 4 | -10 | 4 | – | – | – | – | – |
| NC(=O)C1CCN(c2ncc(Br)s2)CC1 [NCGC00184919-01] | – | – | – | – | – | – | – | – | – | – | – | – | – | -2.1 | -112 | -127 | 39.8 | Confirm? (confirmatory screen) [1, 17]: YES; IC50 [1, 18]: 50.1 µM; Efficacy (%) [1, 10]: -123%; Curve Class ([1]; qHTS FP screen hits, Table S2, one class per curve where COUNT > 1, negative sign = inhibitory curve): -2.1; IC50 [1, 11]: 39.8 µM; Curve Class (counterscreen) [2, 15]: -2.1 |
| CC(=O)Nc1sc2c(c1-c1nc3ccccc3s1)CNC2.O=C(O)C(F)(F)F [NCGC00185090-03] | – | – | – | – | – | – | – | – | – | – | – | – | – | 4 | -34 | -43 | 50.1 | Efficacy (%) [1, 10]: -28%; IC50 [1, 11]: 12.6 µM; Confirm? (counterscreen) [2, 14]: YES; Curve Class (counterscreen) [2, 15]: -2.4 |
| CN1CCN(c2ccc(Nc3nn4c(=O)c5ccccc5nc4s3)cc2)CC1.O=C(O)C(F)(F)F [NCGC00186454-01] | -50 | YES | -2.2 | 50.1 | -32 | 12.6 | -37 | -2.4 | – | – | – | – | – | – | – | – | – | Curve Class [1, 6]: -1.4; IC50 ([2]; counterscreen): 79.4 µM |
| CC1(C)N=C(Nc2nc3ccccc3o2)NC2=C1C(=O)CCC2.O=C(O)C(F)(F)F [NCGC00187643-01] | – | – | – | – | -35 | 20 | – | – | -2.2 | -26 | 4 | -12 | 4 | – | – | – | – | – |
| CCN1CCN(c2cccc(Nc3nn4c(=O)c5ccccc5nc4s3)c2)CC1.Cl [NCGC00187806-01] | -38 | YES | -2.4 | 44.7 | -24 | 35.5 | -58 | -3 | -2.4 | – | – | – | – | – | – | – | – | IC50 ([2]; counterscreen): 89.1 µM |
| COc1ccc2c(=O)n3nc(Nc4cccc(N5CCN(C)CC5)c4)sc3nc2c1.Cl [NCGC00187813-01] | – | – | – | – | -22 | 17.8 | – | – | -1.4 | -43 | 4 | -16 | 4 | – | – | – | – | – |
| CN1CCN(c2cccc(Nc3nn4c(=O)c5ccc(Br)cc5nc4s3)c2)CC1.Cl [NCGC00187814-01] | -63 | YES | -2.4 | 50.1 | – | – | -54 | -2.2 | – | – | – | – | – | – | – | – | – | Efficacy (%) [1, 10]: -28%; IC50 [1, 11]: 39.8 µM; IC50 ([2]; counterscreen): 50.1 µM |
| O=C(O)C(F)(F)F.O=C1CCC2=C1C1(CCCC1)N=C(Nc1nc3ccccc3o1)N2 [NCGC00188036-01] | – | – | – | – | -24 | 2.8 | – | – | -1.4 | -27 | 4 | -10 | 4 | – | – | – | – | – |
| CC1CCC2(C1)N=C(Nc1nc3ccccc3o1)NC1=C2C(=O)CCC1.O=C(O)C(F)(F)F (stereo not shown) [NCGC00188039-01] | – | – | – | – | -25 | 31.6 | – | – | – | -33 | 4 | -20 | 4 | – | – | – | – | Curve Class [1, 6]: -2.4 |
| CC(C)c1nc(Nc2nc3ccccc3o2)nc2c1CCCC2.O=C(O)C(F)(F)F [NCGC00188040-01] | – | – | – | – | -19 | 6.3 | – | – | – | – | – | – | – | 4 | -29 | -36 | 22.4 | Curve Class [1, 6]: -1.4; Confirm? (counterscreen) [2, 14]: YES; Curve Class (counterscreen) [2, 15]: -2.4 |
| CSc1cc2c(s1)c1cnn(Cc3cccc(N)c3)c(=O)c1n2C.O=C(O)C(F)(F)F [NCGC00188341-01] | -133 | YES | -2.1 | 39.8 | -65 | 20 | 0 | 4 | -1.2 | – | – | – | – | – | – | – | – | Confirm? (counterscreen) ([2]; counterscreen, YES/NO): YES |
| Cc1ccc(C(=O)NC(c2ccco2)c2cc(Cl)c3cccnc3c2O)cc1 (stereo not shown) [NCGC00188372-01] | – | – | – | – | -23 | 31.6 | – | – | – | – | – | – | – | 4 | -11 | 42 | 89.1 | Curve Class [1, 6]: -1.4 |
| O=C(NC(c1ccco1)c1cc(Cl)c2cccnc2c1O)c1cccs1.O=C(O)C(F)(F)F (stereo not shown) [NCGC00188375-01] | – | – | – | – | -35 | 25.1 | – | – | -1.2 | – | – | – | – | 4 | 0 | 81 | 50.1 | – |
